Experiments:
MavQ = biological target: T1, MavQ (Legionella pneumophila, UniProt Q5ZRA8)
T1 construct: gene lpg2975

[1] = biological target: RavJ (Lpg0944) 1–230, purified (Legionella pneumophila str. Philadelphia-1) (UniProt Q5ZWY9); assay: crystal structure
crystal structure = biological target: the molecule itself; assay: crystal structure

How did the ADP-Glo kinase assay (MavQ) turn out when `Nc1ncnc2c1ncn2[C@@H]1O[C@H](COP(=O)(O)OP(=O)(O)OP(=O)(O)O)[C@@H](O)[C@H]1O` [ATP] was run?
Its ADP-Glo kinase assay is “wild‐type MavQ, but not the D147A mutant, possesses robust ATP hydrolysis activity”.

`CCCCCCCC(=O)OC[C@H](COP(=O)(O)O[C@@H]1[C@H](O)[C@H](O)[C@@H](O)[C@H](O)[C@H]1O)OC(=O)CCCCCCC` [PI diC8] was tested. Which ADP-Glo kinase assay (MavQ) did it give?
Its ADP-Glo kinase assay is “addition of phosphoinositide to this reaction increased the activity of the wild‐type MavQ fivefold”.

For “LegL1 (Lpg0945) 1–296, purified (from UniProt Q5ZWY8 1-296) (natural protein)”, which stoichiometry N [1] is on record?
Its stoichiometry N is 1.

B1: Lem14 (Lpg1851) 1–220, purified and crystallised (natural protein)
chain: MSFELVAYEKLKGSIRESIITLIKSHNEKAKIIEDKLEYSVKEVSRERQPQVLVLLKTIELLDNSSKEPEDKARVLNALAYYIRDQIAATYKYTSPDNSDFYKSLTISLDLNKDNNPNREDLADMYSALEKFLRSHVYKNSDPRKGYLDKQPFAIKHYSVVDDILELSDRVHKLRHEIIIAARDLHLLQQKPKSSQGGLFSVPSGKEKVTDTHEVANHRL
With B1 as the molecule, how does the “stoichiometry N” value (crystal structure) read?
The value was 2.

Reference: paper PMC5199130 (Molecular Systems Biology, 2016)
